From patent US20190084909A1, “F[…] COMPOUNDS, COMPOSITIONS AND USES THEREOF” (YISSUM RESEARCH DEVELOPMENT COMPANY OF THE HEBREW …, priority 2015, published 2019)
Several values for one entry are separate records, joined by “and”; a condition that tells them apart may be missing. Equal entries are not always repeated.

Tests used:
Swiss mice [1] = conditions: single administration i.p., MK801 0.3-1 mg/kg i.p.; 1 and 15 mg/kg also tested; cited from earlier work
rats = conditions: Vogel punished licking test, intra-dlPAG; cited from earlier work
Swiss mice [2] = conditions: cited from earlier work
Swiss mice [3] = conditions: i.p., doses tested 3, 10, 30 and 100 mg/kg; cited from earlier work
Male Swiss mice = assay: Pre-pulse inhibition (PPI), impairment induced by amphetamine; type: in vivo
Experimental: (§1) Male Swiss mice (25-30 g) originated from the Central Animal Farm of the School of Medicine of Ribeirão Preto (FMRP-USP) were maintained in groups of five animals per box (41×33×17 cm) in a temperature controlled room (24±2° C.) with a 12×12 h light-dark cycle. They received water and food ad libitum throughout the study period.
Cannabidiol (CBD; THC Pharm, 15-60 mg/kg) and HU-485 (1-10 mg/kg) were administered intraperitoneally (ip). All drugs were dissolved in 2% Tween 80 in sterile saline.
The PPI test was conducted simultaneously in two identical startle response systems (Med Associates, USA). A continuous acoustic signal provided a background white noise level of 65 dB. The pulse consists of a 105 dB white noise burst with a rise/decay of 5 ms and duration of 20 ms. The pre-pulse comprised pure 7000 Hz tones, 10 ms duration, with intensities set at 80, 85, and 90 dB. The setups were daily calibrated to ensure equal sensitivity throughout the experiments. Calibration was performed by adjusting the gain on the load cell amplifier to 150 arbitrary units (AU) at a standard weight appropriated for a 40 g mice. The limits of the load cell were −2047 to +2047 AU. Thirty min after the injection of the tested compounds mice received i.p. injections of amphetamine 10 mg/kg or vehicle. […] The first 10 pulse-alone trials allow for the within-session habituation to the startle stimulus and are not considered for PPI statistical analysis. The test consisted of 64 pseudo-random trials divided into eight different groups presented with an inter-stimulus interval of 30 s, and consisting of pulse alone (105 dB), pre-pulse alone (80, 85, or 90 dB), pre-pulse+pulse with 100 ms interval between pre-pulse and pulse, and no stimulus presented. […] Mean acoustic startle response to pulse-alone (P) trials and each pre-pulse+pulse (PP+P) trial was recorded for each subject. PPI was calculated by expressing the pre-pulse+pulse startle amplitude as a percentage of decrease from pulse-alone startle amplitude, according to the following formula: % PPI=100−[100×(PP+P/P)]. This transformation reduces statistical variability attributable to differences between animals and it is a direct PPI measure. Antipsychotic drugs typically attenuate PPI impairment induced by amphetamine.
Results were analyzed by one-way ANOVA followed by Duncan test. […]
Animals received a first injection of vehicle (V) or CBD, followed 30 min later, by vehicle (n=9) or amphetamine 10 mg/kg (V+amphetamine group=9 animals). PPI was evaluated at three-stimuli intensity (90, 85 and 80 dB). […]
Animals received a first injection of vehicle (V) or HU-485, followed 30 min later, by vehicle (n=7) or amphetamine 10 mg/kg (V+amphetamine group=7 animals). PPI was evaluated at three-stimuli intensity (90, 85 and 80 dB). […]

Male Wistar rats [4] = conditions: intra-dlPAG; doses tested 15, 30 and 60 nmol; cited from earlier work
Swiss mice [5] = assay: Forced swimming test (FST), mice; type: in vivo
Experimental: as §1, with “Male Wistar rats (220-250 g) and” for “Male”, “Ribeirio” for “Ribeirão”
(§2) HU-474 (1, 3 and 10 mg/kg) was administered intraperitoneally (IP) in mice at 10 mL/kg volume and HU-475 (1, 3 and 10 nmol) was injected intra-dIPAG in rats. Both drugs were dissolved in 2% Tween 80 in sterile saline.
Animals were individually submitted for 6 min of forced swimming in glass cylinders (height 25 cm, diameter 17 cm) containing 10 cm of water. The mice were videotaped and the immobility time (characterized by slow movements necessary to avoid drowning) was measured during the last 4-min period. The water was changed after each trial to maintain the temperature at 23-25° C. and to prevent the influence of alarm substances (Zanelati et al., 2010).
(§3) Results from HU-475 and HU-474 tests in the elevated plus maze were analyzed by Kruskal-Wallis followed by Mann-Whitney tests. Data from animals tested in the FST were analyzed by one-way ANOVA followed by Duncan test.

Swiss mice [6] = assay: Elevated plus maze (EPM), mice, HU-474 IP; type: in vivo
Experimental: as §1, with “Male Wistar rats (220-250 g) and” for “Male”, “Ribeirio” for “Ribeirão”
as §2
The wood EPM used to perform the experiments was located in a sound attenuated and temperature controlled room (23° C.), with one incandescent light (40 W) placed 1.3 m away from the maze. The apparatus consists of two opposing open arms (50×10 cm) without side walls, perpendicular to two enclosed arms (50×10×40 cm), with a central platform common to all arms (10×10 cm). The apparatus is elevated 50 cm above the ground and has an acrylic edge (1 cm) in the open arms to prevent animal falls. In this model, rodents naturally avoid the open arms, exploring more extensively the enclosed arms. Anxiolytic drugs increase the exploration in open arms without affecting the number of enclosed arms entries, which is usually used to assess general exploratory activity (File, 1992). Ten minutes after the last injection the animal was placed on the central platform of the maze with the head facing one of the enclosed arms. The test lasted for 5 min and was recorded. The animal behavior was analyzed with the help of the Anymaze Software (version 4.5, Stoelting). This software indicates the location of the animal in the EPM and automatically calculates the percentage of entries (Peo) and time spent in the open arms (Pto) and the number of entries in the enclosed arms (EA). Animals were only considered to enter an open or enclosed arm when 90% of their bodies were inside the region. All experiments were performed in the morning period (8 to 12 a.m.).
Similar to 5.1 except that the each arm measured 30×5 cm. 5.3 Forced Swimming Test (FST) Mice
as §3

male C57BL/6J mice = assay: Pre-pulse inhibition (PPI) test, impairment induced by MK-801; type: in vivo
Experimental: The experiments were performed using male C57BL/6J mice weighting 25-30 g. The animals were maintained throughout the experimental period under standard laboratory conditions with free access to water and food will be used.
HU-474 (3 and 10 mg/kg) was dissolved in 2% Tween 80 in sterile saline (vehicle). MK-801 (a NMDA antagonist, 0.5 mg/kg, Sigma, USA) was dissolved in saline. Drugs were administered intraperitoneally (ip) at 10 mL/kg volume.
The animals (n=9-11/group) received i.p. administration of vehicle or HU-474 (3 and 10 mg/kg) followed, 30 minutes later, by saline or MK-801 (0.5 mg/kg), resulting in the following experimental groups: vehicle+saline, HU 10+saline, vehicle+MK-801, HU 3+MK-801, HU 10+MK-801. The animals were submitted to PPI test 20 minutes after the last drug injection.
The PPI was carried out in three consecutive steps. The first consisted of an acclimation period during which no stimulus was presented. In the second step, called habituation, only the stimulus that triggers the startle (pulse) was presented. […] During this session the stimuli are presented at regular intervals of 30 s, 8 presentations of each stimulus. The percentage of the PPI was expressed as the percent inhibition of startle amplitude in response to multiple presentations of the pulse preceded by pre-pulse (PP), depending on the amplitude of the response only to the pulse (P), which was obtained in the following formula: % PPI=100−((PP/P)×100). Using this formula 0% represents no difference between the amplitude of startle triggered only by the pulse or pulse preceded by the pre-pulse and therefore no pre-pulse inhibition. This transformation was performed in order to reduce the statistical variability attributable to differences between animals and represents a direct measure of pre-pulse inhibition (Issy et al., 2009).
The percentage of PPI was analyzed by repeated measures MANOVA with the treatment as the independent factor and the prepulse intensity (80, 85 and 90 dB) as repeated measure.

Male Wistar rats [7] = assay: Elevated plus maze (EPM), rats, microinjection into the dorsolateral periaqueductal gray; type: in vivo
Experimental: as §1, with “Male Wistar rats (220-250 g) and” for “Male”, “Ribeirio” for “Ribeirão”
as §2
Rats were submitted to a stereotaxic surgery to unilaterally implant cannulae (9.0 mm, 0.6 mm OD) into the dIPAG (coordinates: lateral: −1.9 mm; depth: −4.3 mm; angle: 16° from lambda; Paxinos and Watson, 2005), fixed to the skull with acrylic cement (Campos & Guimarães, 2008). The surgeries were performed under anesthesia with tribromoethanol 2.5% (10.0 mL/kg, IP) and immediately after the animals received Veterinary Pentabiotic (0.2 mL, intramuscular) and analgesic (Banamine, 1.0 mL/kg, subcutaneous) to prevent infections and decrease post-surgical pain. After surgery, animals underwent a recovery period of 5-7 days before the behavioral tests.
Animals received unilateral microinjections of vehicle or HU-475 into the dIPAG before being submitted to the behavioral tests. To this aim, microneedles (10.0 mm, 0.3 mm OD), connected to a microsyringe (Hamilton, USA, […]) through a segment of polyethylene (P10) were inserted into the guide cannulae. Solutions were injected with the help of an infusion pump (KD Scientific, USA). A 0.2 μL solution volume was injected over 1 min. After the injections, the needles remained inserted in the cannulae for additional 30 seconds to prevent drug reflux (Campos & Guimarães, 2008).
The wood EPM used to perform the experiments was located in a sound attenuated and temperature controlled room (23° C.), with one incandescent light (40 W) placed 1.3 m away from the maze. The apparatus consists of two opposing open arms (50×10 cm) without side walls, perpendicular to two enclosed arms (50×10×40 cm), with a central platform common to all arms (10×10 cm). The apparatus is elevated 50 cm above the ground and has an acrylic edge (1 cm) in the open arms to prevent animal falls. In this model, rodents naturally avoid the open arms, exploring more extensively the enclosed arms. […] The test lasted for 5 min and was recorded. The animal behavior was analyzed with the help of the Anymaze Software (version 4.5, Stoelting). […]
as §3

For C=C(C)[C@@H]1CCC(C)=C[C@H]1c1c(O)cc(CCCCC)cc1O [CBD, Cannabidiol], the “effective dose attenuating PPI deficits caused by MK801” value (Swiss mice [1]) is listed as 5 mg/kg, the “dose producing an anxiolytic-like effect” value (rats) is listed as 30 nmol and the “dose able to attenuate the hyper-locomotion induced by MK801” value (Swiss mice [2]) is listed as 30 mg/kg. For the same compound, the “effective doses, hyperlocomotion induced by d-amphetamine” value (Swiss mice [2]) was 30 mg/kg and 60 mg/kg, the “dose producing an antidepressant-like effect in the forced swimming test” value (Swiss mice [3]) was 30 mg/kg and the “effect on PPI impairment by amphetamine” value (Male Swiss mice; CBD 30 and 60 mg/kg ip, intensities of 85 and 80 dB, amphetamine 10 mg/kg) was “attenuated”. For the same compound, the “effective dose (anxiolytic-like effect in the EPM)” value (Male Wistar rats [4]) was 30 nmol.
For C=C(C)[C@@H]1CCC(C)=CC1c1c(O)cc(CCCCC)c(F)c1O (stereo partly shown) [HU-474, 4′-fluoro-cannabidiol], the “immobility time in the FST” value (Swiss mice [5]; dose of 3 mg/kg IP (printed 3 m/kg), p=0.019) was “decreased”, the “immobility time in the FST” value (Swiss mice [5]; doses of 1 and 10 mg/kg IP) was “ineffective” and the “potency relative to CBD” value (Swiss mice [5]; forced swimming test, comparison of effective doses) was 10 times. The “number of enclosed arms entries” value (Swiss mice [6]; 1, 3 and 10 mg/kg IP) was “No effect”, the “percentage of entries onto the open arms” value (Swiss mice [6]; 1, 3 and 10 mg/kg IP) was “No effect” and the “percentage of time spent in the open arms” value (Swiss mice [6]; 1, 3 and 10 mg/kg IP, vs vehicle, X2=8.13, p<0.05) was “increased”. For the same compound, the “effective dose (anxiolytic-like effect in the EPM)” value (Swiss mice [6]; systemic administration, bell-shaped dose-response curve) was 3 mg/kg, the “effect on MK-801 PPI disruption” value (male C57BL/6J mice; 10 mg/kg i.p., MK-801 0.5 mg/kg, all prepulse intensities (80, 85, 90 dB), P<0.05) was “attenuated” and the “effective dose against MK-801 PPI disruption” value (male C57BL/6J mice; i.p., 3 and 10 mg/kg tested) was 10 mg/kg.
For C=C(CF)[C@@H]1CCC(C)=CC1c1c(OC(C)=O)cc(CCCCC)cc1OC(C)=O (stereo partly shown) [HU-475, 10-fluoro-cannabidiol diacetate], the “number of enclosed arm entries” value (Male Wistar rats [7]; 1, 3 and 10 nmol intra-dlPAG) was “No effect”, the “percentage of time spent in the open arms” value (Male Wistar rats [7]; 1, 3 and 10 nmol intra-dlPAG, vs vehicle, X2=8.5, p=0.075 (trend)) was “tended to do the same” and the “percentage of entries onto the open arms” value (Male Wistar rats [7]; 1, 3 and 10 nmol intra-dlPAG, vs vehicle, X2=9.66, p<0.05) was “increased”. The “potency relative to CBD” value (Male Wistar rats [7]; EPM, intra-dlPAG injection, comparison of effective doses) was 10 times.
With C[C@]12N[C@H](Cc3ccccc31)c1ccccc12 [MK-801, reference compound] the “effect on PPI” value (male C57BL/6J mice; MK-801 0.5 mg/kg i.p., all prepulse intensities, P<0.05) was “significant PPI disruption”.
In the case of CC(N)Cc1ccccc1 (stereo not shown) [amphetamine, reference compound], the “effect on PPI” value (Male Swiss mice; amphetamine 10 mg/kg i.p., all intensities (90, 85, 80 dB), Duncan p<0.05) is reported as “impaired PPI”.
